Measurements reported in US12171866B2, “Lipid emulsion for parenteral nutrition comprising GPC” (BAXTER INTERNATIONAL INC., priority 2018, dated 2024).
Entries after “also recorded” stand apart in the source; their conditions may differ.

Assays:
[1] = system: male Sprague-Dawley rats with steatosis, induced by choline and methionine deficient (MCD) diet; test: Liver histopathology, vacuolation, choline derivatives alone, Step #2 (FIG. 3A); type: in vivo, rat; conditions: no DHA and ARA
Text: (§1) The effects of GPC as well as of the combination of DHA, ARA and GPC were investigated in a sick animal model, wherein male Sprague-Dawley rats with steatosis, induced by choline and methionine deficient (MCD) diet (S SNIFF MCD pelleted choline/methionine deficient diet (SSNIFF Spezialdiäten GmbH, Soest, Germany, Product No. E15653-94)) were kept on parenteral nutrition.
(§2) Parenteral nutrition started after 14 days under MCD diet. First measurements were done after 5 days of parenteral nutrition, followed by measurements after 9 and 17 days. The daily lipid uptake was 2.31 g/kg/d. The rats were split into several groups as set forth below in Table I.
(§3) Two groups served as control groups, wherein a first group was treated with saline solution (0.90% w/v of NaCl in water for injection). A second group received a lipid emulsion (“LE 10%”) containing refined olive oil (80.0 g/L) and refined soybean oil (20.0 g/L) in water for injection, pH 6-8; LE 10% further contained egg lecithin (6.0 g/L), glycerol (11.25 g/L) and sodium oleate (0.15 g/L). LE 10% contained 100 g/L lipids.
(§4) Various choline derivatives selected from the group consisting of choline chloride, glycerophosphocholine (GPC) and cytidine diphosphate-choline (CDP-choline) were added in two concentrations (low/high) to LE 10%, respectively, see Table I (Step #2). “Low” refers to a concentration of 15 mmol/L lipid emulsion, “high” refers to a concentration of 31 mmol/L of lipid emulsion. Choline chloride (2-Hydroxyethyl)trimethylammonium chloride). Pharmaceutical Secondary Standard, was purchased from Sigma-Aldrich (Merck KGaA, Germany). CDP-choline (prepared by fermentation) was from TCI Europe N.V. (Antwerp, Belgium). Glycerophosphocholine, prepared from egg phosphatide by saponification, was supplied by Lipoid GmbH, Germany. DHA (from algae, Schizochytrium sp.) and ARA (from fungi, Mortierella alpina) were purchased from BASF AG, Germany, Vitamin E was purchased from ADM (IL, U.S.A.)

[2] = Stability of lipid emulsions upon sterilization in the presence of choline derivatives; type: physicochemical; conditions: for Stability of lipid emulsion upon sterilization (Comment): heat sterilization; for stability of the lipid emulsions during sterilization (heat): lipid emulsions prepared as in Example 1
Text: In a first step, raw phases are heated up. […] The receiving vessel is closed and flushed with nitrogen.

[3] = system: male Sprague-Dawley rats with steatosis, induced by choline and methionine deficient (MCD) diet; test: Liver weight to body weight ratio (FIG. 4); type: in vivo, rat
Text: as §1, §2, §3, §4
The study groups as described in Example 1 were further evaluated with regard to the development of liver weight versus body weight. An increase in liver weight which is not proportional to the increase of body weight is typical for the development of liver damage, specifically steatosis, as described before.

[4] = system: male Sprague-Dawley rats with steatosis, induced by choline and methionine deficient (MCD) diet; test: Alanine aminotransferase (ALT) activity in plasma, animal study Step #2 (FIG. 1); type: in vivo, rat
Experimental: ALT activity is determined by a modification recommended by the International Federation of Clinical Chemistry (IFCC), see also Example 2. ALT catalyzes the reaction of alpha-ketoglutarate with L-alanine to form L-glutamate and pyruvate. Under the action of LDH, pyruvate converts to lactate, and NADH is converted to NAD. The decrease in absorbance of NADH, measured at 340 nm (secondary wavelength is 700 nm), is directly proportional to the serum activity of ALT. It is a kinetic reaction. In general, serum is used for analysis. The serum is separated from the cells within 2 hours of collection and stored at -70° C. until assayed, Monitoring the ALT activity over time in an animal model is used herein as one straightforward and conclusive way to determine the efficacy of GPC in treating liver disease, specifically liver damage caused by a choline-deficient diet (Examples 1 and 2, FIGS. 1 and 2), Plasma-free choline concentration can be determined by high-pressure liquid chromatography (HPLC) and gas chromatography-mass spectrometry according to protocols known in the art (Pomfret et. al.: Measurement of choline and choline metabolite concentrations using high pressure liquid chromatography and gas chromatography-mass spectrometry. Anal Biochem. 1989; 180: 85-90). The effects of GPC as well as of the combination of DHA, ARA and GPC were investigated in a sick animal model, wherein male Sprague-Dawley rats with steatosis, induced by choline and methionine deficient (MCD) diet (S SNIFF MCD pelleted choline/methionine deficient diet (SSNIFF Spezialdiäten GmbH, Soest, Germany, Product No. E15653-94)) were kept on parenteral nutrition. Steatosis was confirmed in the respective groups by histopathology (Example 3). Parenteral nutrition started after 14 days under MCD diet. First measurements were done after 5 days of parenteral nutrition, followed by measurements after 9 and 17 days. The daily lipid uptake was 2.31 g/kg/d. The rats were split into several groups as set forth below in Table I. Two groups served as control groups, wherein a first group was treated with saline solution (0.90% w/v of NaCl in water for injection). A second group received a lipid emulsion (“LE 10%”) containing refined olive oil (80.0 g/L) and refined soybean oil (20.0 g/L) in water for injection, pH 6-8; LE 10% further contained egg lecithin (6.0 g/L), glycerol (11.25 g/L) and sodium oleate (0.15 g/L). LE 10% contained 100 g/L lipids. […] Pharmaceutical Secondary Standard, was purchased from Sigma-Aldrich (Merck KGaA, Germany). […] As described before, liver damage (cholestasis) may be determined by increased aminotransferase levels. ALT activity was determined with an ADVIA 1800 blood biochemistry analyzer/IFCC modified (Siemens) according to standard protocols such as described before.

[5] = system: male Sprague-Dawley rats with steatosis, induced by choline and methionine deficient (MCD) diet; test: ALT activity in percent of the normal value, animal study Step #3 (FIG. 2); type: in vivo, rat
Experimental: ALT activity is determined by a modification recommended by the International Federation of Clinical Chemistry (IFCC), see also Example 2. ALT catalyzes the reaction of alpha-ketoglutarate with L-alanine to form L-glutamate and pyruvate. Under the action of LDH, pyruvate converts to lactate, and NADH is converted to NAD. The decrease in absorbance of NADH, measured at 340 nm (secondary wavelength is 700 nm), is directly proportional to the serum activity of ALT. It is a kinetic reaction. In general, serum is used for analysis. The serum is separated from the cells within 2 hours of collection and stored at −70° C. until assayed, Monitoring the ALT activity over time in an animal model is used herein as one straightforward and conclusive way to determine the efficacy of GPC in treating liver disease, specifically liver damage caused by a choline-deficient diet (Examples 1 and 2, FIGS. 1 and 2), Plasma-free choline concentration can be determined by high-pressure liquid chromatography (HPLC) and gas chromatography-mass spectrometry according to protocols known in the art (Pomfret et. al.: Measurement of choline and choline metabolite concentrations using high pressure liquid chromatography and gas chromatography-mass spectrometry. Anal Biochem. 1989; 180: 85-90). […] As described before, liver damage (cholestasis) may be determined by increased aminotransferase levels. […]

[6] = choline derivative low, 15 mmol/L in LE 10%
[7] = choline derivative high, 31 mmol/L in LE 10%, versus LE 10% alone
[8] = plasma, day 5 to day 17 of parenteral nutrition, choline derivative 31 mmol/L (high) in LE 10%
[9] = choline derivative high, 31 mmol/L in LE 10%
[10] = phosphatidylcholine as contained in the lipid emulsion(s)

Row | Compound | effect on liver vacuolation (histopathological examination) [1, 6] | Stability of lipid emulsion upon sterilization (Comment) ([2]; 30 mmol/L, lipid emulsion tested LE 10 %) | stability of the lipid emulsions during sterilization (heat) [2] | liver to body weight ratio [3, 7] | development of ALT activity [4, 8] | effect on liver vacuolation (histopathological examination) [1, 9] | Stability of lipid emulsion upon sterilization (Comment) ([2]; 15 mmol/L, lipid emulsions tested LE 10, 13, 20 %) | Stability of lipid emulsion upon sterilization (Comment) ([2]; 30 mmol/L, lipid emulsions tested LE 10, 20 %) | ALT activity, change versus normal value ([5]; GPC 40 mmol/L in lipid emulsion, normal (LE 10%) or reduced (LE 13%) phytosterol content) | ALT activity, change versus normal value [5, 10] | liver to body weight ratio [3, 10] | development of ALT activity ([4]; phosphatidylcholine as contained in LE lipid emulsion, 17 days parenteral nutrition)
1 | C[N+](C)(C)CCOP(=O)(O)OP(=O)([O-])OC[C@H]1O[C@@H](n2ccc(N)nc2=O)[C@H](O)[C@@H]1O [CDP-choline, cytidine diphosphate-choline] | also had an effect | Phase separation | destabilize the lipid emulsions during sterilization | reduction of the ratio | ALT activity neither significantly increases or decreases | – | – | – | – | – | – | –
2 | C[N+](C)(C)CCO.[Cl-] [choline chloride, (2-Hydroxyethyl)trimethylammonium chloride] | fared better than those with only saline or lipid emulsion without any choline derivative | – | destabilize the lipid emulsions during sterilization | reduction of the ratio | ALT activity neither significantly increases or decreases | fared better than those with only saline or lipid emulsion without any choline derivative | Phase separation | – | – | – | – | –
3 | C[N+](C)(C)CCOP(=O)([O-])OC[C@@H](O)CO [GPC, (2-{[(2S)-2,3-dihydroxypropylphosphonato]oxy}ethyl)trimethylazanium] | significantly better | – | remained stable | most pronounced reduction of the ratio | clear drop in ALT activity; also recorded: most pronounced | significantly better | – | Stable emulsion | significant decrease of ALT activity | – | – | –
4 | phosphatidylcholine | – | – | – | – | – | – | – | – | – | does not seem to have any effect | does not seem to have any effect | does not seem to have any effect
